Experimental data from PubChem BioAssay (NCI).
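Where inhibition never reached the appropriate level, the endpoint shown equals the highest concentration tested. Otherwise, values were interpolated linearly from a five-concentration, 48-hour dose response in 96-well plates. TGI: concentration producing complete growth inhibition.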

Legend:
Assay in all cases: inhibition of tumour cell growth, NCI panel, 48 h
786-0 renal = test system: 786-0 renal
A549 NSCLC = test system: A549 NSCLC
ACHN renal = test system: ACHN renal
CAKI-1 renal = test system: CAKI-1 renal
CCRF-CEM leukemia = test system: CCRF-CEM leukemia
COLO 205 colon = test system: COLO 205 colon
DLD-1 colon = test system: DLD-1 colon
DMS 114 small cell lung = test system: DMS 114 small cell lung
DMS 273 small cell lung = test system: DMS 273 small cell lung
HCC-2998 colon = test system: HCC-2998 colon
HCT-116 colon = test system: HCT-116 colon
HL-60(TB) leukemia = test system: HL-60(TB) leukemia
HOP-62 NSCLC = test system: HOP-62 NSCLC
HOP-92 NSCLC = test system: HOP-92 NSCLC
HT29 colon = test system: HT29 colon
IGROV1 ovarian = test system: IGROV1 ovarian
K-562 leukemia = test system: K-562 leukemia
KM12 colon = test system: KM12 colon
KM20L2 colon = test system: KM20L2 colon
LOX IMVI melanoma = test system: LOX IMVI melanoma
LXFL 529 NSCLC = test system: LXFL 529 NSCLC
M14 melanoma = test system: M14 melanoma
M19-MEL melanoma = test system: M19-MEL melanoma
MALME-3M melanoma = test system: MALME-3M melanoma
MOLT-4 leukemia = test system: MOLT-4 leukemia
NCI-H226 lung = test system: NCI-H226 lung
NCI-H23 lung = test system: NCI-H23 lung
NCI-H460 lung = test system: NCI-H460 lung
NCI-H522 lung = test system: NCI-H522 lung
OVCAR-3 ovarian = test system: OVCAR-3 ovarian
OVCAR-4 ovarian = test system: OVCAR-4 ovarian
OVCAR-5 ovarian = test system: OVCAR-5 ovarian
OVCAR-8 ovarian = test system: OVCAR-8 ovarian
RPMI-8226 leukemia = test system: RPMI-8226 leukemia
RXF 393 renal = test system: RXF 393 renal
RXF-631 renal = test system: RXF-631 renal
SF-268 CNS = test system: SF-268 CNS
SF-295 CNS = test system: SF-295 CNS
SF-539 CNS = test system: SF-539 CNS
SK-MEL-28 melanoma = test system: SK-MEL-28 melanoma
SK-MEL-5 melanoma = test system: SK-MEL-5 melanoma
SK-OV-3 ovarian = test system: SK-OV-3 ovarian
SN12C renal = test system: SN12C renal
SNB-19 CNS = test system: SNB-19 CNS
SNB-75 CNS = test system: SNB-75 CNS
SNB-78 CNS = test system: SNB-78 CNS
SR leukemia = test system: SR leukemia
SW-620 colon = test system: SW-620 colon
TK-10 renal = test system: TK-10 renal
U251 CNS = test system: U251 CNS
UACC-257 melanoma = test system: UACC-257 melanoma
UACC-62 melanoma = test system: UACC-62 melanoma
UO-31 renal = test system: UO-31 renal
XF 498 CNS = test system: XF 498 CNS

Measured: TGI

CC(=O)N(C)OC(=O)CC(=O)c1ccccc1
> 100 µM: all assays above
